Results: US20210087206A1, “MACROCYCLIC KINASE INHIBITORS AND THEIR USE” (TURNING POINT THERAPEUTICS, INC., priority 2017, published 2021)

Columns and labels:
Assay in all cases: Cell proliferation assay (CellTiter-Glo)
Format in all cases: cell-based
[1] = molecular target: T1, BaF3 EML4-ALK (Homo sapiens, UniProt Q9UM73); details: anti-cell proliferation, 72 hours
T1 construct: The EML4-ALK gene (variant 1) was synthesized at GenScript and cloned into pCDH-CMV-MCS-EF1-Puro plasmid (System Biosciences, Inc); fused on or other part: EML4 N-terminal part (variant 1: exons 1-13, with the coiled-coil that oligomerises the fusion) fused to the intracellular part of ALK, which contains the kinase domain; Q9HC35 (Echinoderm microtubule-associated protein-like 4)
Procedure: Cloning and Ba/F3 or NIH3T3 Stable Cell Line Creation
The EML4-ALK gene (variant 1) was synthesized at GenScript and cloned into pCDH-CMV-MCS-EF1-Puro plasmid (System Biosciences, Inc). Ba/F3-EML4-ALK wild type were generated by transducing Ba/F3 cells with lentivirus containing EML4-ALK wide type. Stable cell lines were selected by puromycin treatment, followed by IL-3 withdrawal. Briefly, 5×10^6 Ba/F3 cells were transduced with lentivirus supernatant in the presence of 8 μg/mL protamine sulfate. The transduced cells were subsequently selected with 1 μg/mL puromycin in the presence of IL3-containing medium RPMI1640, plus 10% FBS. After 10-12 days of selection, the surviving cells were further selected for IL3 independent growth.
(§1) Cell Proliferation Assays:
(§2) Two thousand cells per well were seeded in 384 well white plate for 24 hrs, and then treated with compounds for 72 hours (37° C., 5% CO2). Cell proliferation was measured using CellTiter-Glo luciferase-based ATP detection assay (Promega) following the manufactures's protocol. IC50 determinations were performed using GraphPad Prism software (GraphPad, Inc., San Diego, Calif.).

[2] = system: KM12 (TPM3-TRKA); details: Homo sapiens, anti-cell proliferation, 72 hours
Procedure: (§3) Cell Lines and Cell Culture:
(§4) Colorectal cell line KM 12 (harboring endogenous TPM3-TRKA fusion gene) was obtained from NCI. Acute myelogenous cell line KG-1 (harboring endogenous OP2-FGFR1 fusion gene) were purchased from ATCC.
as §1, §2

[3] = system: KG-1 cell (OP2-FGFR1); details: Homo sapiens, anti-cell proliferation, 72 hours
Procedure: as §3, §4, §1, §2

T1 sequence (Q9UM73 whole entry, stated change not applied, the tested form may be a part): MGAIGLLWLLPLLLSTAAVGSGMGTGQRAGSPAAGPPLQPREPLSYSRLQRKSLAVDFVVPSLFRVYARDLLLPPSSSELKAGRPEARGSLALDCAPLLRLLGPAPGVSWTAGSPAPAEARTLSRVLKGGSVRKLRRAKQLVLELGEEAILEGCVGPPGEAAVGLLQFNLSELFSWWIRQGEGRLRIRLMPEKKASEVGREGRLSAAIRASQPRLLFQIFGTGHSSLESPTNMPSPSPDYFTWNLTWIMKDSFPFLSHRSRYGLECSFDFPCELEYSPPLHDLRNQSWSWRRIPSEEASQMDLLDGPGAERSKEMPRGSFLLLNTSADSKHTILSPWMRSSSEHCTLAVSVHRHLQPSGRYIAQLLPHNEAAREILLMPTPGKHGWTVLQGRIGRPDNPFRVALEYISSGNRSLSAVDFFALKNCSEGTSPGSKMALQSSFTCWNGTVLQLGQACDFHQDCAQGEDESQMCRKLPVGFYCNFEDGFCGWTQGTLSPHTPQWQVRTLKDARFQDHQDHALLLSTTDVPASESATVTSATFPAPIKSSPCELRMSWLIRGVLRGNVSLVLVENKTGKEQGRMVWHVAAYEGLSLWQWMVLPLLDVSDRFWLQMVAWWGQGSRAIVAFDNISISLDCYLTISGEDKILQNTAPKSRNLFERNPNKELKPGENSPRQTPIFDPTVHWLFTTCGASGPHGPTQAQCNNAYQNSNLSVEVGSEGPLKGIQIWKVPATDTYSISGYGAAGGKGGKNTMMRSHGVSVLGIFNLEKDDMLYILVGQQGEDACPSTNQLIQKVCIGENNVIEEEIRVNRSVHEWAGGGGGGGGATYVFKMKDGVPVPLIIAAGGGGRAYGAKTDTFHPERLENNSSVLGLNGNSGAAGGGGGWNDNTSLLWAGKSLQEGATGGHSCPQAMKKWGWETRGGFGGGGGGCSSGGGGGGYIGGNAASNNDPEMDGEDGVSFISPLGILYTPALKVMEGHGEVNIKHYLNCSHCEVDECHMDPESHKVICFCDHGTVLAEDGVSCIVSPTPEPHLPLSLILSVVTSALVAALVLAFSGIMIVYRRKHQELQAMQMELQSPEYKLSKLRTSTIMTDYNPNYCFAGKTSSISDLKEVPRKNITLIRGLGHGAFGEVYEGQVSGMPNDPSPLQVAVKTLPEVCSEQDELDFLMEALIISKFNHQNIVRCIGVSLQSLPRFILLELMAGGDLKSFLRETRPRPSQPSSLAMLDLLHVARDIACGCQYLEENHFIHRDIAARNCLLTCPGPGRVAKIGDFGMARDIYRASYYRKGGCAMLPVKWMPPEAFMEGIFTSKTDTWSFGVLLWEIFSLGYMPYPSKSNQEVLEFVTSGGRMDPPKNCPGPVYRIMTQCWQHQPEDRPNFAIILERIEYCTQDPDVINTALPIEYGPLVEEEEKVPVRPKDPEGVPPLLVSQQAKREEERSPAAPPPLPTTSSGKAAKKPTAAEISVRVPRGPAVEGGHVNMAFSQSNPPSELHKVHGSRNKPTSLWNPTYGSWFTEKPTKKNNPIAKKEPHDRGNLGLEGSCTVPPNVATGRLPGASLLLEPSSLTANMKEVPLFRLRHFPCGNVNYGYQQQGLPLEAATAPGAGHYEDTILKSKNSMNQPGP

Compound | IC50 [1] | IC50 [2] | IC50 [3]
C[C@H]1CNC(=O)c2cnn3cc4c(nc23)N(Cc2cc(F)cnc2O1)[C@H](C1CC1)CO4 [Compound 26, (4R,12S)-4-cyclopropyl-8-fluoro-12-methyl-3,4,13,14-tetrahydro-6H-18,1-(metheno)[1,4]oxazino-[3,4-i]pyrazolo[4,3-f]pyrido-[3,2-l]-[1,4,8,10]oxatriazacyclo-tridecin-15(12H)-one] | 692 nM | < 0.2 nM | 694 nM
C[C@@H]1COc2cn3ncc4c3nc2N1Cc1cc(F)cnc1O[C@@H](C)CCNC4=O [Compound 36, (8S,16R)-12-fluoro-8,16-dimethyl-5,6,7,8,16,17-hexahydro-4H,14H-1,19-(metheno)[1,4]oxazino[4,3-e]pyrazolo[3,4-h]pyrido[2,3-b] [1,5,7,11]oxatriazacyclotetra-decin-4-one] | 60.9 nM | < 0.2 nM | 25.3 nM
C[C@@H]1CCOc2cn3ncc4c3nc2N1Cc1cc(F)ccc1O[C@@H](C)CNC4=O [Compound 19, (5R,13S)-9-fluoro-5,13-dimethyl-4,5,14,15-tetrahydro-3H,7H-19,1-(metheno)[1,4]oxazepino[3,4-i]-pyrazolo[4,3-f][1,4,8,10]benzo-xatriazacyclotridecin-16(13H)-one] | 6220 nM | < 0.2 nM | 9950 nM
C[C@H]1CNC(=O)c2cnn3cc4c(nc23)N(CCO4)Cc2c(ccc(F)c2Cl)O1 [Compound 1, (12S)-7-chloro-8-fluoro-12-methyl-3,4,13,14-tetrahydro-6H-18,1-(metheno)[1,4]oxazino[3,4-i]pyrazolo[4,3-f][1,4,8,10]benzoxatriazacyclotridecin-15(12H)-one] | 969 nM | 0.2 nM | 1330 nM
CC[C@@H]1COc2cn3ncc4c3nc2N1Cc1cc(F)cnc1OC[C@@H](C)NC4=O [Compound 15, (4R,13R)-4-ethyl-8-fluoro-13-methyl-3,4,13,14-tetrahydro-6H-18,1-(metheno)[1,4]oxazino[3,4-i]pyrazolo[4,3-f]pyrido[3,2-l] [1,4,8,10]oxatriazacyclotridecin-15(12H)-one] | 14 nM | < 0.2 nM | 25.2 nM
C[C@@H]1COc2cn3ncc4c3nc2N1Cc1cc(F)cnc1OCCC(C)(C)NC4=O [Compound 70, (16R)-12-fluoro-6,6,16-trimethyl-5,6,7,8,16,17-hexahydro-4H,14H-1,19-(metheno)[1,4]oxazino[4,3-e]pyrazolo[3,4-h]pyrido[2,3-b] [1,5,7,11]oxatriazacyclotetradecin-4-one] | 35.7 nM | < 0.2 nM | 51.7 nM
C[C@@H]1COc2cn3ncc4c3nc2N1Cc1cc(F)cnc1OCC1(CCC1)CNC4=O [Compound 47, (16′R)-12′-fluoro-16′-methyl-4′H,5′H,6′H,8′H,14′H,16′H,17′H-spiro[cyclobutane-1,7′-[9,18]-dioxa[1,2,5,10,15,20]hexaaza-[1,19](metheno)[1,4]oxazino-[4,3-e]pyrazolo[3,4-h]pyrido-[2,3-b][1,5,7,11]oxatriazacyclo-tetradecin]-4′-one] | 68 nM | < 0.2 nM | 24.2 nM
C[C@H]1CNC(=O)c2cnn3cc4c(nc23)N(CCCO4)Cc2cc(F)ccc2O1 [Compound 17, (13S)-9-fluoro-13-methyl-4,5,14,15-tetrahydro-3H,7H-19,1-(metheno)[1,4]oxazepino-[3,4-i]pyrazolo[4,3-f][1,4,8,10]-benzoxatriazacyclotridecin-16(13H)-one] | 2640 nM | < 0.2 nM | 5000 nM
C[C@@H]1COc2ncc(F)cc2CN2c3nc4c(cnn4cc3OC[C@H]2Cc2ccccc2)C(=O)N1 [Compound 39, (4R,13R)-4-benzyl-8-fluoro-13-methyl-3,4,13,14-tetrahydro-6H-18,1-(metheno)[1,4]oxazino[3,4-i]pyrazolo[4,3-f]pyrido[3,2-l] [1,4,8,10]oxatriazacyclotridecin-15(12H)-one] | 1610 nM | – | 73.7 nM
CC1CNC(=O)c2cnn3cc4c(nc23)N(Cc2cc(F)cnc2OC1)[C@H](C)CO4 (stereo partly drawn) [Compound 71, (16R)-12-fluoro-7,16-dimethyl-5,6,7,8,16,17-hexahydro-4H,14H-1,19-(metheno)[1,4]oxazino[4,3-e]pyrazolo[3,4-h]pyrido[2,3-b] [1,5,7,11]oxatriazacyclotetradecin-4-one] | 19.9 nM | < 0.2 nM | 11.9 nM
C[C@@H]1COc2c(F)cc(F)cc2CN2c3nc4c(cnn4cc3OC[C@H]2C)C(=O)N1 [Compound 16, (4R,13R)-8,10-difluoro-4,13-dimethyl-3,4,13,14-tetrahydro-6H-18,1-(metheno)[1,4]oxazino-[3,4-i]pyrazolo[4,3-f][1,4,8,10]-benzoxatriazacyclotridecin-15(12H)-one] | 90.2 nM | < 0.2 nM | 827 nM
C[C@H]1CNC(=O)c2cnn3cc4c(nc23)N(Cc2cc(F)cnc2O1)C[C@@H](O)CO4 [Compound 90, (4R,13S)-9-fluoro-4-hydroxy-13-methyl-4,5,14,15-tetrahydro-3H,7H-19,1-(metheno)[1,4]-oxazepino[3,4-i]pyrazolo[4,3-f]pyrido[3,2-l][1,4,8,10]oxatriaza-cyclotridecin-16(13H)-one] | – | < 0.2 nM | 359 nM
CC[C@@H]1COc2cn3ncc4c3nc2N1Cc1cc(F)cnc1O[C@@H](C)CNC4=O [Compound 10, (4R,12S)-4-ethyl-8-fluoro-12-methyl-3,4,13,14-tetrahydro-6H-18,1-(metheno)[1,4]oxazino[3,4-i]pyrazolo[4,3-f]pyrido[3,2-l] [1,4,8,10]oxatriazacyclotridecin-15(12H)-one] | 71.2 nM | 0.2 nM | 63.1 nM
C[C@@H]1COc2ncc(F)cc2CN2c3nc4c(cnn4cc3OC[C@H]2C#N)C(=O)N1 [Compound 66, (4R,13R)-8-fluoro-13-methyl-15-oxo-3,4,12,13,14,15-hexahydro-6H-18,1-(metheno)[1,4]oxazino[3,4-i]pyrazolo[4,3-f]pyrido[3,2-1][1,4,8,10]oxatriazacyclotridecine-4-carbonitrile] | – | 463 nM | 10000 nM
C[C@H]1CNC(=O)c2cnn3cc4c(nc23)N(Cc2cc(F)cnc2O1)C[C@H](O)CO4 [Compound 62, (4S,13S)-9-fluoro-4-hydroxy-13-methyl-4,5,14,15-tetrahydro-3H,7H-19,1-(metheno)[1,4]-oxazepino[3,4-i]pyrazolo[4,3-f]-pyrido[3,2-l][1,4,8,10]oxatria-cyclotridecin-16(13H)-one] | – | 94.8 nM | 681 nM
C[C@H]1CNC(=O)c2cnn3cc4c(nc23)N(Cc2cc(F)cnc2O1)[C@H](Cc1ccccc1)CO4 [Compound 38, (4R,12S)-4-benzyl-8-fluoro-12-methyl-3,4,13,14-tetrahydro-6H-18,1-(metheno)[1,4]oxazino[3,4-i]pyrazolo[4,3-f]pyrido[3,2-l] [1,4,8,10]oxatriazacyclotridecin-15(12H)-one] | 7240 nM | – | 357 nM
C[C@@H]1COc2ncc(F)cc2CN2C[C@@H](F)COc3cn4ncc(c4nc32)C(=O)N1 [Compound 94, (4R,14R)-4,9-difluoro-14-methyl-4,5,14,15-tetrahydro-3H,7H-19,1-(metheno)[1,4]oxazepino[3,4-i]pyrazolo[4,3-f]pyrido[3,2-l] [1,4,8,10]oxatriazacyclotridecin-16(13H)-one] | – | 40.3 nM | 6110 nM
C[C@H]1CNC(=O)c2cnn3cc4c(nc23)N(Cc2cc(F)cnc2O1)C(C)(C)CO4 [Compound 37, (12S)-8-fluoro-4,4,12-trimethyl-3,4,13,14-tetrahydro-6H-18,1-(metheno)[1,4]oxazino[3,4-i]-pyrazolo[4,3-f]pyrido[3,2-l] [1,4,8,10]oxatriazacyclotridecin-15(12H)-one] | 1550 nM | – | 5000 nM
CC[C@@H]1COc2ncc(F)cc2CN2c3nc4c(cnn4cc3OC[C@H]2C)C(=O)N1 [Compound 24, (4R,13R)-13-ethyl-8-fluoro-4-methyl-3,4,13,14-tetrahydro-6H-18,1-(metheno)[1,4]oxazino[3,4-i]pyrazolo[4,3-f]pyrido[3,2-l] [1,4,8,10]oxatriazacyclotridecin-15(12H)-one] | 104 nM | – | 50 nM
C[C@@H]1COc2cn3ncc4c3nc2N1Cc1cc(F)cnc1OCC(O)(O)CNC4=O [Compound 81, (16R)-12-fluoro-7,7-dihydroxy-16-methyl-5,6,7,8,16,17-hexahydro-4H,14H-1,19-(metheno)[1,4]oxazino[4,3-e]pyrazolo[3,4-h]pyrido[2,3-b][1,5,7,11]oxatriazacyclotetradecin-4-one] | – | < 0.2 nM | 166 nM
